Test results as given in patent US20150087722A1, “TREATMENT FOR BREAST TUMOR CELL METASTASIS” (China Medical University, priority 2012, published 2015).

Key:
Assay type in all cases: cell-based, human
[1] = system: MMP-2, MMP-9, uPA, uPAR, TIMP-1, TIMP-2, PAI-1 in breast tumor cells; assay: western blotting of metastasis-related proteins; conditions: 0.5, 1 and 2 μM, 24 h, with dose increasing
Experimental: (§1) The steps of western blotting include: washing cells with PBS twice at 4° C.; adding a lysis buffer and rubbing the cells by a rubbr policeman so as to lyse cells; putting the lysed cell solution into a 1.5 ml microcentrifuge tube and shaking for 1 min; centrifuging at 12000 rpm for 10 min and taking the supernatant; measuring concentration of the protein through a Bio-Rad protein assay kit; and storing the remained extracted protein solution at −70° C.; taking 100 μg protein solution and adding a SDS/protein loading buffer having the same volume, where the SDS/protein loading buffer has a concentration two times larger than the protein solution; boiling the mixture of the protein solution and the SDS/protein loading buffer at 100° C. for 10 min; cooling and loading the protein samples in each hole of gel; adjusting the voltage to 100 V and running the protein samples on the gel until the tracking dye in the sample buffer reaches the bottom of the gel; and subsequently transferring the protein from the gel using electrophoresis. […] Then luminescence image equipment was used, where the PVDF was placed onto a black metal plate by a plastic pincer and the face including protein was upwards, a 1:1 mixed Chemiluminesent Substrate was added into the membrane and the exposure time depends on the fluorescence intensity of antibodies. […]

[2] = system: ERK1/2, p38 and JNK1/2 in breast tumor cells; assay: western blotting of MAPK proteins and phosphorylation; conditions: 2 μM, 0-120 min
Experimental: as §1

[3] = system: PI3K and Akt in breast tumor cells; assay: western blotting of PI3K and Akt and phosphorylation; conditions: 2 μM, 0-120 min
Experimental: as §1

SMILES: COC1=C(OC)C(=O)C(C)=C(C)C1=O [compound II]
- expression amount of TIMP-1, TIMP-2 and PAI-1 [1]: increased
- expression of MMP-2, MMP-9, uPA and uPAR [1]: inhibited
- phosphorylation of ERK1/2, p38 and JNK1/2 [2]: probably inhibited
- protein expression of ERK1/2, p38 and JNK1/2 [2]: not affected
- phosphorylation of PI3K and Akt [3]: probably inhibited
- protein expression of PI3K and Akt [3]: not affected
